Literature values as cited in US7575768B2, “Dietary supplements and prepared foods containing triglyceride-recrystallized non-esterified phytosterols” (Brandeis University, priority 2005, dated 2009).

System: humans

SMILES | lowering of serum cholesterol (12-18 g per day in divided doses, males with atherosclerosis) | decrease of plasma cholesterol level (9-18 grams per day, coarse powdered form)
CC[C@H](CC[C@@H](C)[C@H]1CC[C@H]2[C@@H]3CC=C4C[C@@H](O)CC[C@]4(C)[C@H]3CC[C@]12C)C(C)C [beta sitosterol] | 15-20% | 
CC[C@H](CC[C@@H](C)[C@H]1CC[C@H]2[C@@H]3CC=C4C[C@@H](O)CC[C@]4(C)[C@H]3CC[C@]12C)C(C)C [sitosterol] |  | approximately 15%
